# Test results: US12275961B2, “Method for utilizing engineered dendritic cells to induce gut-homing regulatory T cells and treat gut inflammation” (LOMA LINDA UNIVERSITY, priority 2015, dated 2025)
# Several values for one entry are separate records, joined by “and”; a condition that tells them apart may be missing. Equal entries are not always repeated.
# Key:
# [1] = tested on: foxp3 expression in activated T cells; experiment: foxp3 expression in T cells of splenocytes activated by anti-CD3/CD28 beads with exogenous calcitriol; format: cell-based, mouse; conditions: 72 hours
# Source text: The naive mouse splenocytes can be cultured for 3 days with 1,25 Vitamin D (100 U/ml, Sigma-Aldrich) in the presence of human (h) IL-2 (50 U/ml) in complete RPMI 1640 medium (10% FBS; HyClone). The cells were harvested and stained for the FoxP3 expression with an anti-FoxP3 Ab (FJK-16s; eBioscience) and CCR9 expression.
# A supraphysiological concentration of the active vitamin D metabolite, 1,25[OH]2D (calcitriol), may be necessary for calcitriol to induce foxp3 expression during T cell priming. Foxp3 is a protein that is involved in the regulatory pathway in the development and function of regulatory T cells. To determine whether a supraphysiological concentration is necessary, foxp3 expression in T cells during T cell activation in the presence of exogenous calcitriol can be examined. Splenocytes can be activated by anti-CD3/CD28 magnetic beads. In some cultures, 1,25[OH]2D can be added at a low (20 nM) or high (100 nM) concentration. Cells can be cultured for 72 hours and analyzed for foxp3 expression using flow cytometry. Flow cytometry can be performed by harvesting transduced mCYP27B1-positive DCs, washing them in PBS, resuspending them in the FACS buffer, and analyzing them for GFP expression on a flow cytometer. […] The normal range of human calcitriol serum concentration is 16˜56 pg/ml (0.038 nM 0.13 nM). […]
# [2] = tested on: dextran sodium sulfate-induced inflammatory bowel disease; experiment: DSS-induced inflammatory bowel disease, six-group study (Example V); format: in vivo, mice
# Source text: Then, the efficacy of the disclosed agents and method was confirmed in an additional study. […] Injections were made at day 7 post-disease induction by dextran sodium sulfate. All mice were sacrificed at day 10.
# [3] = some patients; cited from earlier work
# [4] = injection at day 7 post-DSS, sacrifice day 10
smiles,measurement,setting,value
"C=C1C(=CC=C2CCC[C@]3(C)[C@@H]2CC[C@@H]3[C@H](C)CCCC(C)(C)O)C[C@@H](O)C[C@@H]1O [calcitriol, (1R,3S)-5-[2-[(1R,3aR,7aS)-1-[(2R)-6-hydroxy-6-methyl-heptan-2-yl]-7a-methyl-2,3,3a, 5,6,7-hexahydro-1H-inden-4-ylidene]ethylidene]-4-methylidene-cyclohexane-1,3-diol]",foxp3 expression in activated T cells,[1]; 20 nM,slightly up regulated
same,foxp3 expression in activated T cells,[1]; 100 nM,significantly augment
same,increase in serum calcium,[2]; calcitriol 200 ng/day/mouse intraperitoneal,more than 30%
same,colon lesions / mucosal integrity,[2]; [4],did improve colon mucosal integrity
same,hypercalcemia,[2]; [4],severe hypercalcemia
same,body weight loss,"[2]; injection at day 7 post-DSS, sacrifice day 10, calcitriol 200 ng/day/mouse intraperitoneal",failed to prevent body weight loss
same,serum calcitriol level tolerated without dose-limiting toxicity (hypercalcemia),[3],up to 300 pg/ml and ≤ 0.72 nM
